Patent publication US8889662B2, “Method to alter sex ratios in avian offspring” (University of Georgia Research Foundation, Inc., priority 2009, dated 2014)

Assays:
laying hens = assay: Preliminary studies with silastic CORT implants: CORT concentrations and laying patterns; assay type: in vivo, chicken
Experimental: Additionally, concentrations of CORT and three other hormonal factors known to interact with CORT and ovarian follicular development—testosterone, progesterone, and leptin—will be measured in blood samples taken 4 h after ovulation as well as 4 and 6 h prior to ovulation in females from both treatment groups on days 3, 6, and 12 (to correspond with ovulation of collected eggs above). CORT concentrations will be measured in the yolk of each collected egg as well. […] Additionally, laying patterns were monitored for 2 weeks following implantation and 100% of birds implanted with CORT implants continued to lay at a similar frequency compared to before implantation, illustrating that we will be able to collect eggs from birds following this chronic implant treatment.

[1] = Example 1: plasma CORT radioimmunoassay after injection, chickens; assay type: in vivo, chicken; conditions: hens
Experimental: (§1) Approximately 19 h following the appearance of a mid-sequence egg, females received one of three treatments: (1) a high dose of CORT (2 mg in 0.5 ml peanut oil), (2) a control treatment (0.5 ml peanut oil), or (3) no injection treatment. The egg corresponding to the next ovulation event was labeled, collected, and incubated at 37° C. for a period of 7 days to allow for embryonic development. Embryos were separated and sexed using PCR based techniques as described above. The percentage of females producing male offspring in each group were calculated and compared using chi square analyses. Also, as described above, blood samples were taken from a subset of females one hour and four hours after injection to verify that the CORT treatment did, in fact, elevate maternal CORT concentrations at the time of meiotic segregation. CORT was quantified using a standard radioimmunoassay and CORT concentrations were log transformed and analyzed using an analysis of variance (ANOVA).

[2] = Example 1: plasma CORT radioimmunoassay after injection, zebra finches; assay type: in vivo, zebra finch (Taeniopygia guttata); conditions: female zebra finches
Experimental: (§2) This experiment was conducted to determine whether a single injection of CORT at the critical time of sex chromosome segregation is sufficient to skew offspring sex ratios towards females. Female zebra finches were monitored for signs of nest-building and egg-laying. Approximately 19 h following the appearance of the first egg (1 h before sex chromosome segregation), females received one of two treatments: (1) a high dose of CORT (20 ug in 50 ul peanut oil), or (2) a control treatment (50 ul peanut oil). Because oviposition and ovulation are nearly concurrent, ovulation of the second egg took place when the first egg was laid. Thus, the egg that would be affected by our treatment was the third egg in the sequence. Eggs were labeled as they were laid and were collected after 6 d of incubation for molecular sexing analysis as described above. The percentage of females producing male offspring in each group were calculated and compared using chi square analyses. Blood samples were taken from a subset of females 1 h and 2.5 h post injection to verify that the CORT injection did, in fact, elevate circulating maternal CORT concentrations. CORT was quantified using a standard radioimmunoassay and CORT concentrations were log transformed and analyzed using an analysis of variance (ANOVA).

[3] = Testosterone concentrations after a pharmacological dose of CORT (Examples 1 and 2); assay type: in vivo, zebra finches; conditions: within 1-3 hours of administration
[4] = Example 3: plasma corticosterone radioimmunoassay after injection, laying hens; assay type: in vivo, chicken; conditions: 1.5 mg
Experimental: Radioimmunoassays. Blood samples were collected from a separate set of hens to verify that CORT treatment elevated plasma corticosterone during the completion of meiotic segregation. Relative to the injections described above (5 h prior to ovulation), blood samples were collected from half of the CORT, CONT, and UN-treated hens at 1 h and the other half at 4 h (FIG. 6). Blood samples were collected from the brachial vein within 3 min of initial handling to avoid variation due to handling stress (Romero and Reed, 2005, Comp Biochem Physiol A; 140:73-79). Extraction and radioimmunoassay of plasma corticosterone were completed as described by Mendonça et al. (Mendonça et al., 1996, Horm Behav; 30:153-161). Twenty-four blood samples were analyzed from UN-treated hens (12 from each time period), 12 from CONT-treated hens (5 and 7 at 1 h and 4 h, respectively), and 12 from CORT-treated hens (6 from each time period).
Statistical Analysis. […] All hormone data were non-normally distributed and were log-transformed for statistical analysis. Plasma corticosterone concentrations were analyzed among treatment groups and time points using an ANOVA and differences among individual treatment groups were analyzed using Fisher's PLSD. Statistical analyses were carried out using Statview software (SAS Institute, Cary, N.C. USA).

[5] = tested on: white leghorn and brown hyline hens; assay: Example 1: offspring sex after a single maternal CORT injection, chickens; assay type: in vivo, chicken; conditions: 2 mg CORT about 19 h after a mid-sequence egg, p=0.002 vs controls, p<0.0001 vs non-injected
Experimental: This experiment was similar to the previous one in that a single injection of CORT was provided at the time of meiotic segregation and the sexes of the resulting eggs were quantified. Laying patterns of female white leghorn and brown hyline hens were monitored and timed. Females that were laying between 1000 and 1200 h EST were included in the experiment. Females were artificially inseminated using pooled semen from 5-10 roosters at two time points prior to treatment.
as §1, with “Also, as described above, blood samples were taken from a subset of females one hour and four hours after injection to verify that the CORT treatment did, in fact, elevate maternal CORT concentrations at the time of meiotic segregation.” left out

[6] = Example 2: plasma corticosterone radioimmunoassay after injection, zebra finches; assay type: in vivo, Zebra finch (Taeniopygia guttata); conditions: zebra finch, 20 ug
Experimental: Radioimmunoassays. […] Different individuals were sampled at each time point. Blood samples were also taken from a set of unmanipulated females at time intervals 20 minutes and 1 hour, during the same bleeding session. To ensure that measurements reflect corticosterone elevations associated with the injection and not the stress of handling, samples were taken from the brachial vein within 3 minutes of capture (Romero and Romero, 2002, Condor; 104:129-135; Wingfield et al., 1982, Condor; 84:399-409). Injections and sampling began at 2300 hours (5 hors prior to ovulation) to accurately measure the blood plasma levels of corticosterone and changes in corticosterone levels in response to injections during the approximate period that meiosis occurs. Based on studies done in other avian species, it is likely that the time period from injection to blood sampling is just prior to the natural diurnal CORT peak that occurs at the end of the dark period (Westerhof et al., 1994, Avian Diseases; 38:428-434; de Jong et al., 2001, Physiology and Behavior; 74:299-304). The procedures for extraction and radioimmunoassay of corticosterone from plasma were followed as described by (Wingfield and Farner, 1975, Steroids; 26:311-327) and (Mendonça et al., 1996, Horm Behav; 30:153-161) using a rabbit derived anti-corticosterone antibody (MP Biomedicals, Solon, Ohio USA, cat #07-120016).
Statistical Analysis. Plasma CORT concentrations were analyzed among treatment groups and time points using a two-way ANOVA, and individual treatment differences were analyzed using Fisher's PLSD. All hormone data were non-normally distributed and were thus log transformed for statistical analyses.

[7] = tested on: zebra finch (Taeniopygia guttata); assay: Example 1: offspring sex after a single maternal CORT injection at sex chromosome segregation, zebra finches; assay type: in vivo; conditions: 20 ug CORT about 19 h after first egg, third egg of sequence, control injected 46%
Experimental: as §2

C[C@]12C[C@H](O)[C@H]3[C@@H](CCC4=CC(=O)CC[C@@]43C)[C@@H]1CC[C@@H]2C(=O)CO [corticosterone]
implanted birds that continued to lay at a similar frequency (laying hens; silastic CORT implants, laying monitored for 2 weeks after implantation): 100%
CORT concentrations after silastic CORT implants (laying hens; within 2 d of implantation, persisted 1 week after implantation): significantly elevated CORT concentrations
circulating CORT concentrations compared to controls ([1]; 2 mg CORT in 0.5 ml peanut oil, within one hour of injection, p<0.0001): significantly increased circulating CORT concentrations
circulating CORT concentrations compared to controls ([1]; 2 mg CORT, four hours post-injection): This difference disappeared
circulating CORT concentrations compared to controls ([2]; 20 ug CORT in 50 ul peanut oil, within 1 h of injection, p<0.0001): significantly increased circulating CORT concentrations
circulating CORT concentrations compared to controls ([2]; 20 ug CORT, 2.5 h post-injection, p=0.08): remained higher in the CORT treated females 2.5 h post-injection, but not significantly so
testosterone concentrations after CORT [3]: testosterone concentrations increased significantly
plasma corticosterone levels compared to CONT and UN treated hens ([4]; 1 h after injection, p<0.0001 in both cases): significantly raised corticosterone levels
plasma corticosterone concentrations ([4]; four hours post-injection, CORT-UN p<0.01, CORT-CONT p=0.07): only significantly elevated in CORT-treated hens
likelihood of male embryos compared to controls and non-injected females [5]: significantly more likely to be male
plasma corticosterone levels compared to non-injected birds ([6]; 20 minutes after injection, p<0.0001): raised corticosterone levels significantly
levels of corticosterone post-injection ([6]; 20 minutes, 1 hour and 2.5 hours post-injection (summary statement)): significantly elevated levels of corticosterone
plasma corticosterone levels compared to non-injected birds ([6]; 1 hour post-injection, p=0.0002): remained significantly elevated
plasma corticosterone levels, CORT treated versus control treated females ([6]; 2.5 hours after injection, p=0.0789): similar
plasma corticosterone levels compared to unmanipulated females ([6]; 2.5 hr post-injection versus unmanipulated birds sampled at 1 h, p=0.0401): significantly higher corticosterone levels
plasma corticosterone levels (FIG. 4 legend) ([6]; min and one hour after injection): significantly raised plasma corticosterone levels
eggs that were male (primary sex ratio) [7]: 71%
